Drawing on US20250011288A1 (BRISTOL-MYERS SQUIBB COMPANY, priority 2021, published 2025), this text covers EC50 for 19 molecules.

Each structure is given as a SMILES string.

The assay addresses T1, human RXFP1 (Homo sapiens, UniProt Q9HBX9).
T1 construct: expressed in transfected cells
T1 sequence (Q9HBX9 1-757): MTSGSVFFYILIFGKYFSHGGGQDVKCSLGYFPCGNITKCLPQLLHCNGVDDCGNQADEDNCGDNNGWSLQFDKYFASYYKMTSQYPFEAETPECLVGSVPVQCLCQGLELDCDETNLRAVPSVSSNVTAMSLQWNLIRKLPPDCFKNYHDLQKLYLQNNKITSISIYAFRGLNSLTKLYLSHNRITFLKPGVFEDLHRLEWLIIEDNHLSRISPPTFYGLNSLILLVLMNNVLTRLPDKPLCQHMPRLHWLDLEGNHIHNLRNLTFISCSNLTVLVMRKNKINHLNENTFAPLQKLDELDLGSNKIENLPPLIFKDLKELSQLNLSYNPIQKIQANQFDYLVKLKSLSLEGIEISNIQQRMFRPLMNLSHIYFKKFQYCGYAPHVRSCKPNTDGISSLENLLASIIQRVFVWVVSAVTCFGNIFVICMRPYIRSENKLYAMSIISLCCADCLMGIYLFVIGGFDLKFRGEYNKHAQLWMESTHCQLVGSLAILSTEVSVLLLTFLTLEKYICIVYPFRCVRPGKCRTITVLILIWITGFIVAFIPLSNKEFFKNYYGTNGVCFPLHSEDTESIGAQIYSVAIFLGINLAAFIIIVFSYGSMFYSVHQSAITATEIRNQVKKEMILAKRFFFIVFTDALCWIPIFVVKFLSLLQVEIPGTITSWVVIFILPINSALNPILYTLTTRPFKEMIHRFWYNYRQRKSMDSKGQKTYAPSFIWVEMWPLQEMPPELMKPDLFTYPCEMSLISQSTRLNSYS
The assay is described as follows: human RXFP1 (hRXFP1) HEK293 cAMP assay (HTRF). Conditions: HEK293 cells stably expressing human RXFP1, 30 min at room temperature. The format is cell-based. The procedure: RXFP1 Cyclic Adenosine Monophosphate (cAMP) Assays. […] Cells were dissociated and suspended in assay buffer. The assay buffer was HBSS buffer (with calcium and magnesium) containing 20 mM HEPES, 0.05% BSA, and 0.5 mM IBMX. Cells (3000 cells per well, except 1500 cell per well for HEK293 cells stably expressing human RXFP1) were added to 384-well Proxiplates (Perkin-Elmer). Cells were immediately treated with test compounds in DMSO (2% final) at final concentrations in the range of 0.010 nM to 50 µM. Cells were incubated for 30 min at room temperature. The level of intracellular cAMP was determined using the HTRF HiRange cAMP assay reagent kit (Cisbio) according to manufacturer's instructions. Solutions of cryptate conjugated anti-cAMP and d2 fluorophore-labelled cAMP were made in a supplied lysis buffer separately. Upon completion of the reaction, the cells were lysed with equal volume of the d2-cAMP solution and anti-cAMP solution. […] The potency and activity of a compound to […] cAMP production was then determined by fitting to a 4-parametric logistic equation from a plot of cAMP level versus compound concentrations.
A general note: Cyclic AMP is a second messenger, typically raised through Gs and lowered through Gi signalling.

Broadly, the EC50 is the midpoint of the concentration-response curve. Low readings indicate a more potent agent, high ones a less potent agent.

In the case of `O=C(N[C@@H]1C2CCC(/C2=C/C(F)(F)F)[C@@H]1C(=O)Nc1ccc(F)c(C(F)(F)F)c1)c1cnn2c(C(F)F)cc(Cl)cc12` (stereo partly shown) [Example 13], the EC50 came to 1700 nM.

`COc1cccc2cc(C(=O)N[C@@H]3C4CCC(/C4=C/C(F)(F)F)[C@@H]3C(=O)Nc3ccc(F)c(C(F)(F)F)c3)cnc12` (stereo partly drawn) [Example 14, N-[(2R,3S,7Z)-3-{[4-fluoro-3-(trifluoromethyl)phenyl]carbamoyl}-7-(2,2,2-trifluoroethylidene)bicyclo[2.2.1]heptan-2-yl]-8-methoxyquinoline-3-carboxamide]: the midpoint of the response, the EC50, lay at 2900 nM.

On to `Cn1c(=O)c(C(=O)N[C@@H]2C3CCC(/C3=C/C(F)(F)F)[C@@H]2C(=O)Nc2ccc(F)c(C(F)(F)F)c2)cc2ccccc21` (stereo partly drawn) [Example 15, N-[(2R,3S,7Z)-3-{[4-fluoro-3-(trifluoromethyl)phenyl]carbamoyl}-7-(2.2,2-trifluoroethylidene)bicyclo[2. 2.1]heptan-2-yl]-1-methyl-2-oxo-1,2-dihydroquinoline-3-carboxamide], for which the EC50 amounted to 3500 nM.

In turn, `O=C(N[C@@H]1C2CCC(/C2=C/C(F)(F)F)[C@@H]1C(=O)Nc1ccc(F)c(C(F)(F)F)c1)c1cc(=O)c2ccccc2o1` (stereo partly drawn) [Example 16, N-[(2R,3S,7Z)-3-{[4-fluoro-3-(trifluoromethyl)phenyl]carbamoyl}-7-(2,2,2-trifluoroethylidene)bicyclo[2. 2.1]heptan-2-yl]-4-oxo-4H-chromene-2-carboxamide] showed an EC50 of 3800 nM.

Regarding `O=C(N[C@@H]1C2CCC(/C2=C/C(F)(F)F)[C@@H]1C(=O)Nc1ccc(F)c(C(F)(F)F)c1)c1cnc2ccc(Cl)cc2c1` (stereo partly drawn) [Example 17, 6-chloro-N-[(2R,3S,7Z)-3-{[4-fluoro-3-(trifluoromethyl)phenyl]carbamoyl}-7-(2,2,2-trifluoroethylidene)bicyclo[2.2.1]heptan-2-yl]quinoline-3-carboxamide], the EC50 worked out at 4500 nM.

For `Cn1cc(Br)cc(C(=O)N[C@@H]2C3CCC(/C3=C/C3CC3)[C@@H]2C(=O)Nc2ccc(F)c(C(F)(F)F)c2)c1=O` (stereo partly drawn) [Example 18, 5-bromo-N-[(2R,3S,7Z)-7-(cyclopropyl-methylidene)-3-{[4-fluoro-3-(trifluoromethyl)phenyl]carbamoyl}bicyclo [2.2.1]heptan-2-yl]-1-methyl-2-oxo-1,2-dihydropyridino-3-carboxamide], the EC50 was determined as 2100 nM.

For the molecule `Cn1c(=O)c(C(=O)N[C@@H]2C3CCC(/C3=C/C3CC3)[C@@H]2C(=O)Nc2ccc(F)c(C(F)(F)F)c2)cc2ccccc21` (stereo partly shown) [Example 19], the EC50 came to 4000 nM.

For `COc1ncc(-c2ccc(C(=O)O)cc2)cc1C(=O)N[C@@H]1C2CCC(C2=C(C)C)[C@@H]1C(=O)Nc1ccc(F)c(C(F)(F)F)c1` (stereo partly drawn) [Example 20, 4-(5-{[(2R,3S)-3-{[4-fluoro-3-(trifluoromethyl)phenyl]carbamoyl}-7-(propan-2-ylidene)bicyclo[2.2.1]heptan-2-yl]carbamoyl}-6-methoxypyridin-3-yl)benzoic acid], it took 250 nM to reach a half-maximal effect (EC50).

In turn, `COc1ncc(-c2cc(C(=O)O)ccc2F)cc1C(=O)N[C@@H]1C2CCC(C2=C(C)C)[C@@H]1C(=O)Nc1ccc(F)c(C(F)(F)F)c1` (stereo partly drawn) [Example 21, 4-fluoro-3-(5-{[(2R,3S)-3-{[4-fluoro-3-(trifluoromethyl)phenyl]carbamoyl}-7-(propan-2-ylidene)bicyclo[2.2.1]heptan-2-yl]carbamoyl}-6-methoxypyridin-3-yl)benzoic acid] showed an EC50 of 80 nM.

`COc1ccc(-c2ccc(C(=O)O)cc2)nc1C(=O)N[C@@H]1C2CCC(C2=C(C)C)[C@@H]1C(=O)Nc1ccc(F)c(C(F)(F)F)c1` (stereo partly drawn) [Example 22, 4-(6-{[(2R,3S)-3-{[4-fluoro-3-(trifluoromethyl)phenyl]carbamoyl}-7-(propan-2-ylidene)bicyclo [2.2.1]heptan-2-yl]carbamoyl}-5-methoxypyridin-2-yl)benzoic acid] came in with an EC50 of 1700 nM.

For the molecule `COc1ccc(-c2cc(C(=O)O)ccc2F)nc1C(=O)N[C@@H]1C2CCC(C2=C(C)C)[C@@H]1C(=O)Nc1ccc(F)c(C(F)(F)F)c1` (stereo partly drawn) [Example 23, 4-Fluoro-3-(6-{[(2R,3S)-3-{[4-fluoro-3-(trifluoromethyl)phenyl]carbamoyl}-7-(propan-2-ylidene)bicyclo [2.2.1]heptan-2-yl]carbamoyl}-5-methoxypyridin-2-yl)benzoic acid], the concentration giving a half-maximal response (EC50) was 2400 nM.

For the molecule `COc1ncc(-c2cc(C(=O)O)ccc2F)nc1C(=O)N[C@@H]1C2CCC(C2=C(C)C)[C@@H]1C(=O)Nc1ccc(F)c(C(F)(F)F)c1` (stereo partly drawn) [Example 24, 4-Fluoro-3-(6-{[(2R,3S)-3-{[4-fluoro-3-(trifluoromethyl)phenyl]carbamoyl}-7-(propan-2-ylidene)bicyclo [2.2.1]heptan-2-yl]carbamoyl}-5-methoxypyrazin-2-yl)benzoic acid], the EC50 came to 1000 nM.

`COc1ncc(-c2cc(C(=O)O)ccc2F)cc1C(=O)N[C@@H]1C2CCC(/C2=C/c2ccccc2)[C@@H]1C(=O)Nc1ccc(F)c(C(F)(F)F)c1` (stereo partly drawn) [Example 25, 4-Fluoro-3-(5-{[(2R,3S,7Z)-3-{[4-fluoro-3-(trifluoromethyl)phenyl]carbamoyl}-7-(phenylmethylidene)bicyclo[2.2.1]heptan-2-yl]carbamoyl}-6-methoxypyridin-3-yl)benzoic acid] yielded an EC50 of 33 nM.

In turn, `COc1ncc(-c2cc(C(=O)O)ccc2F)nc1C(=O)N[C@H]1[C@@H](C(=O)Nc2ccc(F)c(C(F)(F)F)c2)[C@H]2CC[C@@H]1/C2=C\c1cnoc1` [Example 26, 4-fluoro-3-(6-(((1R,2R,3S,4R,Z)-3-((4-fluoro-3-(trifluoromethyl)phenyl)carbamoyl)-7-(isoxazol-4-ylmethylene)bicyclo[2.2.1]heptan-2-yl)carbamoyl)-5-methoxypyrazin-2-yl)benzoic acid] had an EC50 of 76 nM. Against the preceding molecule, the EC50 is about 2.3-fold higher.

Molecule `COc1ccc(-c2cc(C(=O)O)ccc2F)nc1C(=O)N[C@@H]1C2CCC(/C2=C/c2cnoc2)[C@@H]1C(=O)Nc1ccc(F)c(C(F)(F)F)c1` (stereo partly drawn) [Example 27, 4-Fluoro-3-(6-{[(2R,3S,7Z)-3-{[4-fluoro-3-(trifluoromethyl)phenyl]carbamoyl}-7-[(1,2-oxazol-4-yl)methylidene]bicyclo[2.2.1]heptan-2-yl]carbamoyl}-5-methoxypyridin-2-yl)benzoic acid] had an EC50 of 290 nM. Compared with the last molecule, the EC50 is about 3.8-fold higher.

`COc1ncc(-c2cc(C(=O)O)ccc2F)cc1C(=O)N[C@@H]1C2CCC(/C2=C/C(F)(F)F)[C@@H]1C(=O)Nc1ccc(F)c(C(F)(F)F)c1` (stereo partly drawn) [Example 28, 4-Fluoro-3-(5-{[(2R,3S,7Z)-3-{[4-fluoro-3-(trifluoromethyl)phenyl]carbamoyl}-7-(2,2,2-trifluoroethylidene)bicyclo[2. 2.1]heptan-2-yl]carbamoyl}-6-methoxypyridin-3-yl)benzoic acid]: a half-maximal response (EC50) required 34 nM.

Take `COc1ncc(-c2cccc(C(=O)O)c2)cc1C(=O)N[C@@H]1C2CCC(/C2=C/C(F)(F)F)[C@@H]1C(=O)Nc1ccc(F)c(C(F)(F)F)c1` (stereo partly drawn) [Example 29, 3-(5-{[(2R,3S,7Z)-3-{[4-fluoro-3-(trifluoromethyl)phenyl]carbamoyl}-7-(2,2,2-trifluoroethylidene)bicyclo[2.2.1]heptan-2-yl]carbamoyl}-6-methoxypyridin-3-yl)benzoic acid]: the EC50 is 136 nM. Compared with the last molecule, the EC50 is about 4-fold higher.

As to `COc1cnc(-c2cc(C(=O)O)ccc2F)cc1C(=O)N[C@@H]1C2CCC(/C2=C/C(F)(F)F)[C@@H]1C(=O)Nc1ccc(F)c(C(F)(F)F)c1` (stereo partly drawn) [Example 30, 4-Fluoro-3-(4-{[(2R,3S,7Z)-3-{[4-fluoro-3-(trifluoromethyl)phenyl]carbamoyl}-7-(2,2,2-trifluorocthylidene)bicyclo[2. 2.1]heptan-2-yl]carbamoyl}-5-methoxypyridin-2-yl)benzoic acid], the midpoint of the response, the EC50, lay at 109 nM.

As to `COc1cnc(-c2cccc(C(=O)O)c2)cc1C(=O)N[C@@H]1C2CCC(/C2=C/C(F)(F)F)[C@@H]1C(=O)Nc1ccc(F)c(C(F)(F)F)c1` (stereo partly drawn) [Example 31, 3-(4-{[(2R,3S,7Z)-3-{[4-fluoro-3-(trifluoromethyl)phenyl]carbamoyl}-7-(2,2,2-trifluoroethylidene)bicyclo[2.2.1]heptan-2-yl]carbamoyl}-5-methoxypyridin-2-yl)benzoic acid], the EC50 stood at 162 nM. The EC50 values of the last two molecules are within 1.5-fold of each other.
